Reference: patent US11485701B2, “Insect repellent compounds and compositions, and methods thereof” (Iowa State University Research Foundation, Inc., priority 2016, dated 2022)
Read-outs that look alike come from different tables or passages of the source.

Tested on: Northern house mosquitoes (Culex pipiens)
Assay: Short-term spatial repellency, static air repellency chamber
Type: in vivo
Details: for pest or weed control at 0.5 %: Culex pipiens; for Short-term repellency at low concentration, in words: filter paper treated with 0.1%
Procedure: Northern house mosquitoes (Culex pipiens), a primary carrier of West Nile virus in eastern North America, were obtained from an established colony in the Medical Entomology Laboratory in the Department of Entomology at Iowa State University of Science and Technology, Ames Iowa. Mosquito rearing was performed by established protocols that are maintained by the Medical Entomology Laboratory. Repellency bioassays were performed with adult female mosquitoes that emerged 5-7 days previously. […] Mosquitoes, prior to testing, were held at 27° C., 80% relative humidity, and on a 16:8 hr light:dark photoperiod.
Repellency bioassays were performed using a static air repellency chamber, which has been described in various publications by the Pesticide Toxicology Laboratory at Iowa State University of Science and Technology, Ames, Iowa Briefly, a 9-cm×60-cm glass tube was used to monitor the distribution of mosquitoes at 15 min, 30 min, 60 min, 90 min, 120 min, and 150 min after introducing mosquitoes into the static air repellency chamber. […] One end of the spatial chamber contained a treated filter paper, whereas the other (untreated) end of the spatial chamber was not treated with compound. Controls contained filter papers treated with acetone, the solvent used to make the 0.5% solutions. Each end of the repellency chamber was secured with a 100-mm Petri dish using celluloid tape. After securing the petri dishes with corresponding treated or untreated filter papers to the spatial chamber, mosquitoes were anesthetized with carbon dioxide, and approximately 20 female mosquitoes were placed into each repellency chamber for one replicate. The opening of the spatial repellency chamber was secured with celluloid tape to prevent their escape. Chambers were oriented in opposite directions from the previous replicate to account for any directional effect. Four replicates were performed for data analysis for both the control and treatment groups.
Data for spatial repellency, the percentage repellency, is reported at each of the respective time points in the figures and tables mentioned below. The percentage spatial repellency is the examination of the distribution of mosquitoes and is calculated using the following equation: […]

[1] = 0.25 h, filter paper, 1 mL of 0.5% solution in acetone, air-dried 15 min, 15 min after introduction, read-out: Short-term Percentage repellency 15 min
[2] = 1.5 h, filter paper, 1 mL of 0.5% solution in acetone, air-dried 15 min, 90 min, read-out: Short-term Percentage repellency 90 min
[3] = 2.5 h, filter paper, 1 mL of 0.5% solution in acetone, air-dried 15 min, 150 min, read-out: Short-term Percentage repellency 150 min

| Compound | pest or weed control at 0.5 % (0.25 h, read-out: Short-term Percentage repellency 15 min) | pest or weed control at 0.5 % [1] | pest or weed control at 0.5 % [2] | pest or weed control at 0.5 % [3] | Short-term percentage repellency 150 min at 1/5 the concentration (0.1% (1/5 of 0.5%), 150 minutes, FIG. 6) | Short-term repellency at low concentration, in words (FIG. 6) |
| --- | --- | --- | --- | --- | --- | --- |
| Cc1ccc(C(C)C)c(OC(=O)C(F)F)c1 [Compound 2194, thymyl difluoroacetate] | 20% |  |  |  |  |  |
| Cc1ccc(C(C)C)cc1OC(=O)CC(C)C [Compound 1079C, carvacryl isovalerate] |  | -10% | 87.5% | 95% |  |  |
| CC(C)=CCCC(C)CCOC(=O)c1ccccc1 (stereo not shown) [Compound 2189, citronellyl benzoate] |  | 6.5% | 17.5% | 27.5% |  |  |
| O=C(OC/C=C/c1ccccc1)C1CC1 [Compound 2038, cinnamyl cyclopropanecarboxylate] |  | 40% | 57.5% | 60% |  |  |
| CC(C)=CCCC(C)CCOC(=O)C=C(C)C (stereo not shown) [Compound 2105, citronellyl 3,3-dimethylacrylate] |  | 45% | 75% | 65% |  |  |
| CC(C)CC(=O)OCC1=CCC2CC1C2(C)C (stereo not shown) [Compound 2258, myrteryl isovalerate] |  | 35% | 85% | 87.5% |  |  |
| CC(C)=CCC/C(C)=C\COC(=O)C1(C)CCC1 [Compound 2108, neryl 1-methylcyclobutanecarboxylate] |  | 60% | 90% | 85% |  |  |
| CC1CCC(C(C)C)C(OC(=O)Cc2cccs2)C1 (stereo not shown) [Compound 2245, menthyl thiophen-2-ylacetate] |  | -35% | 35% | 57.5% |  |  |
| C=CCc1ccc(OC(=O)CC(C)C)c(OC)c1 [Compound 1076A, eugenyl isovalerate] |  | 17.5% |  |  |  |  |
| CCCCCCC(=O)OCCC(C)CCC=C(C)C (stereo not shown) [Compound 2203, citronellyl hexanecarboxylate] |  | 0% | 10% | 20% |  |  |
| CC(C)=CCC/C(C)=C\COC(=O)CC(C)C [Compound 2255B, neryl isovalerate] |  | 7.5% | 75% | 80% |  |  |
| Cc1cc(OC(=O)C2CC2)c(C(C)C)cc1Br [Compound 1075B, 4-bromothymyl cyclopropanecarboxylate] |  | 47.5% | 32.5% | 30% |  |  |
| CC(C)=CCCC(C)CCOC(=O)C1CCC1 (stereo not shown) [Citronellyl cyclobutanecarboxylate] |  |  |  |  | approximately 90% | significant levels of repellency |
| CC(C)CC(=O)OC1CC(C)CCC1C(C)C (stereo not shown) [Compound 2256, menthyl isovalerate] |  | 37.5% | 42.5% | 27.5% |  |  |
| CC1CCC(C(C)C)C(OC(=O)C2(C)CCC2)C1 (stereo not shown) [Compound 2210, menthyl 1-methylcyclobutanecarboxylate] |  | -5% | 62.5% |  |  |  |
| CC(=O)OCCOC(=O)C=Cc1ccccc1 [Compound 1105, 2-acetoxyethyl cinnamate] |  | 30% | 15% | 10% |  |  |
| CC(C)=CCCC(C)CCOC(=O)C1CC(F)(F)C1 (stereo not shown) [Compound 3069, citronellyl 3,3-difluorocyclobutanecarboxylate] |  | 2.5% | 20% | 27.5% |  |  |
| CC(C)=CCCC(C)CCOC(=O)c1cccs1 (stereo not shown) [Compound 2180, Citronellyl thiophene-2-carboxylate] |  | 0% | 37.5% | 45% |  |  |
| CC(C)=CCCC(C)CCOC(=O)CC1CC1 (stereo not shown) [Compound 2229, citronellyl cyclopropylacetate] |  |  |  |  |  | significant levels of repellency |
